Source: US20250352486A1, “NANOPARTICLES FOR USE IN THE TREATMENT OF INFECTIONS CAUSED BY BIOFILMS” (Universitat Politècnica De València, priority 2022, published 2025)

Experiments:
Type in all cases: cell-based
[1] = test system: Candida albicans biofilms; test: Eradication of mature Candida albicans biofilms (xCELLigence); conditions: mature biofilms at 24 h; micafungin 1.5 μg/ml plus zymolyase 171 μg/ml, or 0.15% hydrogen peroxide
Method: Effect of platinum and mesoporous silica nanoparticles on the eradication of mature Candida albicans biofilms. C. albicans biofilms were cultured in the micro dilution plates of the xCELLigence system for 24 h and then treated with a combination of free micafungin together with zymolyase (an enzyme with the ability to disperse biofilm-forming cells), indicated in the legend as MZ, or with nanoparticles loaded with the antifungal micafungin and anchored with the enzyme zymolyase. […] The black curve represents the growth of the untreated biofilm and the black arrow indicates the time when the treatment was added.

[2] = test system: endodontic biofilms from root canals; test: Disruption of endodontic biofilms (xCELLigence); conditions: 16 μg/ml in suspension, added after 6 h of growth
Method: FIG. 4.1. Disruption of endodontic biofilms using platinum and silica nanoparticles loaded with metronidazole. Endodontic biofilms were cultured in the xCELLigence system and after 6 hours of growth they were treated with 1 mg/ml of nanoparticles containing 2.25 μg of metronidazole, or with metronidazole in suspension at a concentration of 16 μg/ml, and compared to the untreated control (black curve). The black arrow indicates the time when the biofilm was treated. The biofilm comes from root canal samples extracted during a root canal and contains a complex microbial community formed by dozens of bacteria that cause this infection. Endodontic biofilms from root canals were collected with sterile files and placed in 1 ml of VMG (Ill) transport medium ([…] et al., 1993). Subsequently, the samples were transported to the laboratory where they were subjected to stirring for 3 minutes. Then, the files were extracted, the samples were centrifuged for 5 min at 10,000 rpm and the supernatant was discarded. The obtained pellet was resuspended with 1 ml of BHI (brain-heart infusion) culture medium and the samples were cultured in micro dilution plates of the xCELLigence impedance measurement system for 6 h, following the protocol described by Mira et al. 2019 (J Oral Microbiol). […]

[3] = test system: polymicrobial oral biofilms (dental plaque); test: Effect on preformed oral biofilms derived from saliva (xCELLigence); conditions: 16 μg/ml, two donors (A, B)
Method: FIG. 5.1. Effect of platinum and mesoporous silica nanoparticles loaded with metronidazole on preformed oral biofilms derived from saliva samples of two independent donors (A and B). The biofilms were grown in the xCELLigence system for 6 hours, and subsequently treated with metronidazole in suspension (concentration of 16 μg/ml) or with nanoparticles loaded with metronidazole (1 mg/ml of nanoparticles containing 2.25 μg metronidazole). The black arrows indicate the time when the treatment was added, whereas the black curves represent the untreated control. The biofilm comes from saliva samples and contains a complex microbial community made up of dozens of dental plaque-forming bacteria. To investigate the effect of platinum (Pt) and mesoporous silica nanoparticles on polymicrobial oral biofilms (dental plaque), biofilms derived from the saliva of two independent donors were cultured in the xCELLigence system for 6 hours, following the protocol described by Mira et al. 2019 (J Oral Microbiol). Subsequently, free metronidazole (at a concentration of 16 μg/ml), or nanoparticles with metronidazole (1 mg/ml of nanoparticles containing 2.25 μg of metronidazole) was added to evaluate the effect on said biofilms. […]

| Structure (SMILES) | effect on biofilm formation [1] | more biofilm formation compared to the untreated control [2] | effect on salivary biofilm growth [3] |
| --- | --- | --- | --- |
| OO [hydrogen peroxide] | induced the formation of biofilms |  |  |
| Cc1ncc([N+](=O)[O-])n1CCO [metronidazole] |  | up to 15% | induction of biofilm growth |
